We go through two molecules from patent US9328059B2, “Pharmaceutical composition for preventing or treating autophagy-related diseases, angiogenic diseases or melanin-related diseases” (INDUSTRY-ACADEMIC COOPERATION FOUNDATION, YONSEI UNIVERSITY, priority 2010, dated 2016).

Data set [1] relates to HeLa cells. As to the kind of experiment: LC3 immunoblotting (LC3-I to LC3-II conversion) in HeLa. It is filed as cell-based, human. Conditions: for effect of autophagy inhibitor on indatraline-induced conversion of LC3-I to LC3-II: inhibitor pre-treated 1 hr. As for the experimental part: (§1) Soluble proteins were harvested from indatraline-treated HeLa cells by using SDS buffer (50 mM Tris HCl, pH 6.8, 10% glycerol, 2% SDS, 10 mM dithiothreitol, and 0.005% bromophenol blue). Equal volumes of proteins were separated by 12.5% SDS-PAGE and transferred to PVDF membranes (Millipore). Blots were then blocked and immunolabeled overnight at 4° C. using anti-LC3 antibody (MBL, Nagoya, Japan). Immunolabeling was visualized with enhanced chemiluminescence (ECL) kit (Amersham Life Science, Inc., Buckinghamshire, UK) according to the manufacturer's protocol. Tubulin was used as an internal control and was detected using anti-tubulin antibody (Upstate Biotechnology).
LC3 conversion was finally verified by immunoblotting. After indatraline treatment for 24 hrs, the conversion of LC3-I to LC3-II in cells was tested (FIG. 2A). Inductions of autophagy in both of HUVEC and HeLa cells were tested in concentration starting from 5 μM. In order to investigate signal pathway related to indatraline, well-known autophagy inhibitors 3-MA (10 mM), Bafilomycin A (100 nM), PD98059 (10 μM) and Wortmannin (100 nM) was treated with indatraline. The inhibitors were pre-treated for 1 hr before indatraline and treated with 5 μM or 10 μM of indatraline. Where indatraline was treated with 5 μM of concentration, the conversion of LC3-I to LC3-II was inhibited in Bafilomycin A-treated sample and Wortmannin-treated sample (FIG. 2B). However, where indatraline was treated with 10 μM of concentration, the conversion of LC3-I to LC3-II was not inhibited in inhibitor-treated samples, except for Bafilomycin A-treated sample.

Data set [2] deals with melan-a cells. Nature of the data set: Measurement of amounts of melanin generated in melan-a. Conditions: 5 μM, vs control group.
Description: (§4) In order to verify whether indatraline induces autophagy and is involved in melanogenesis, skin cancer cell line B16-F10 and normal skin cell line melan-a were treated with indatraline to determine autophagy generation. The amount of melanin generated in each cell line was measured at 5 μM concentration in which autophagy strongly occurs. For measurement on amounts of melanin, cells were treated with indatraline for 24, 48 and 72 hrs, and collected with KOH every day to measure melanin pigment absorbance at 410 nm. At the same time, cell proliferation was measured using MTT.
(§5) The amount of melanin generated in each cell line was measured at 5 μM of concentration which autophagy surely occurs. […] At the same time, cell growth was measured.
The test system of data set [3] is normal skin cell line melan-a. Nature of the data set: LC3 conversion in melan-a. It is filed as cell-based. The procedure:
It was verified whether indatraline is induced autophagy and involved in melanogenesis. The correlation of autophagy and melanogenesis has been studied as described above. Pigmentation disorders are generated by melanogenesis (chloasma, freckle, age spot, etc.), and abnormality of melanogenesis control can lead to melanoma (skin cancer). Therefore, melanogenesis control may be used to whitening and skin cancer treatment. […] As a result, it was determined that autophagy was induced. […] In melan-a cells, LC3 conversion was observed from 1 μM of concentration (FIG. 5A).

Data set [4] concerns B16-F10 cells. Nature of the data set: Measurement of amounts of melanin generated in B16-F10. Conditions: B16-F10, 5 μM, vs control group.
Description: as §4, §5
In a further data set the test system is rat carotid artery. Nature of the data set: Inhibition of angiostenosis after balloon injury. It is filed as in vivo. Conditions: 7 days. The procedure:
In order to verify effects for inhibiting angiostenosis by indatraline as autophagy-induced material in rat carotid artery, a balloon injury was created in the normal left rat carotid artery. After balloon injury, indatraline, rapamycin and DMSO (control group) were treated using catheter to observe angiostenosis. […] At 7 days after the injury, the carotid arteries were excised. Smooth muscle cells were stained with hematoxylin and eosin (H&E). Levels of angiostenosis were observed.
After balloon injury, indatraline, rapamycin and DMSO (control group) were treated using catheter to observe angiostenosis. […] The ratio between intima area and media area was compared by observing tissue stenosed.

For data set [5], the system named is HUVEC. Nature of the data set: VEGF-induced chemoinvasion assay. It is filed as cell-based. The procedure:
In vitro HUVEC invasion was verified using Transwell chamber equipped 8.0-1 m size pore polycarbonate filter insert. Briefly, the lower layer surface of the filter was coated with gelatin (1 mg/mL), and the upper layer surface of the filter was coated with matrigel (3 mg/mL). HUVEC (7×10^4 cells) was placed in the upper layer of the filter, and the compound was added to the lower layer of the filter under the presence of VEGF (50 ng/ml). Then, the chamber was incubated at 37° C. for 18 hrs. The cells were fixed with 70% methanol and stained with hematoxylin and eosin. The lower layer of the filter was observed by microscope with 100× magnification to measure the cell invasion. The cell images were obtained using DP70 camera.

A further data set concerns HeLa cell. Nature of the data set: Cytotoxicity during autophagy screening in HeLa. It is filed as cell-based, human. As to conditions: 5 μM, 24 hrs. The procedure: (§2) The present study is newly reported that indatraline induces autophagy. Although the relationship between neurotransmitter inhibitor and autophagy has been studying, specific mechanisms for each neurotransmitter inhibitor have not yet been unknown. Indatraline-induced autophagy was verified by fluorescence screening and LC3 conversion immunoblotting. In addition, indatraline inhibits cell proliferation with an IC50 of 3 μM in HeLa cell and an IC50 of 0.5 μM in HUVEC cell, respectively. […] In addition, angiogenesis inhibitory effect of indatraline is tested as autophagy inducer and cell growth inhibitor. Indatraline of In vitro assay inhibits capillary formation, invasion and migration as angiogenesis indicators. […] Induction of autophagy may trigger signal inhibiting angiogenesis, or inhibition of neurotransmitter may simultaneously stimulate inhibitions of both of autophagy and angiogenesis.

For data set [6], the system named is B16-F10 cells. Nature of the data set: Cell growth (MTT) in B16-F10. Conditions: B16-F10, 5 μM, vs control group.
Description: as §4, §5
The subject of data set [7] is HUVEC. Nature of the data set: Cell proliferation assay (MTT) in HUVEC. Conditions: Homo sapiens, 72 h, 3 days. It is filed as cell-based. The procedure: (§3) Cell proliferation was measured using a MTT [3-(4,5-dimethylthiazol-2-yl)-2,5-diphenyltetrazolium bromide] colorimetric assay. HeLa cells and HUVEC (Lonza, USA) were seeded at a density of 3×10^3 cells/well in 96-well plates and incubated for 24 hrs. Cells were treated with various concentration of indatraline. After 3 days of treatment, 2 mg/mL MTT was added to each well and incubated for 4 hrs. MTT formazoan in each well was dissolved in 150 μL of DMSO, and absorbance at 595 nm was measured in a microplate reader (Bio-Tek Instrument Inc., Winooski, Vt.). Relative cell growth was measured by calculating the ratio between signal of indatraline-treated wells and control wells.

Data set [8] concerns HUVEC. Nature of the data set: Cell migration (wound) assay. It is filed as cell-based. As to conditions: 5 μM and 10 μM, 9 hrs. As for the experimental part: To measure cell migration, HUVEC cells were cultured up to 100% confluence in 12-well plates. Then, the well was wounded a straight scratch using a 200 μL pipette tip. Cells were treated with indatraline and cells migration was observed every 3 hrs. The wound at 9 hrs was recovered by almost 80%. The images were obtained using DP70 camera with 40× magnification.

In data set [9] the test system is HeLa cells. As to the kind of experiment: Autophagy detection by MDC staining. As to conditions: 24 hrs.
Excerpt: (§6) Each sample was washed with PBS three times and visualized by fluorescence microscopy. […] Hoechst 33258 and LysoTracker were purchased from Molecular Probes (Eugene, Oreg.), and MDC was purchased from BioChemika (Sigma, Switzerland).
Data set [10] deals with COS7 cells stably expressing EGFP-LC3. As to the kind of experiment: Autophagy detection in stable cell line expressing EGFP-LC3. It is filed as cell-based, African green monkey. Conditions: COS7 EGFP-LC3, 24 hrs. The procedure: HeLa (human epithelial cervix adenocarcinoma) cells and COS-7 (African green monkey kidney cells) cells (Korean Cell Line Bank) were grown and maintained in DMEM containing 10% FBS (fetal bovine serum). A stable COS7 cell line expressing EGFP-LC3 was established by transfecting COS7 cells with pEGFP-LC3 using Lipofectamine 2000 according to the manufacturer's protocol (Invitrogen). Stable clones were selected in complete medium containing 750 μg/mL of G418. Cells were cultured at 37° C. in an atmosphere of 5% CO2 in air, pH 7.4. DMEM and FBS were obtained from Gibco Laboratories (Grand Island, N.Y.). Plasmids encoding EGFP-LC3 was kindly provided by Tamotsu Yoshimori (National Institute for Basic Biology, Japan).
In order to measure direct elements of autophagy, indatraline-induced autophagy was further verified in stable COST cell line expressing EGFP-LC3. Where autophagy was induced, the cytosolic form of LC3 is converted into the membrane-bound form. By the recruitment of Atg12-Atg5 complex, the cytosolic form of LC3 is converted into the membrane-bound form to mature the autophagosome. After indatraline treatment for 24 hrs, EGFP-LC3 positive small vacuoles were examined in the cytosol.

The next data set deals with HUVEC cell. Nature of the data set: Cytotoxicity during autophagy screening in HUVEC. It is filed as cell-based. As to conditions: 5 μM, 24 hrs. As for the experimental part: as §2
In data set [11] the test system is HeLa cells. As to the kind of experiment: Autophagy detection by Lysotracker fluorescence, quantified by HCS.
Excerpt: as §6
Data set [12] relates to melan-a cells. As to the kind of experiment: Cell growth (MTT) in melan-a. Conditions: 5 μM, vs control group.
Description: as §4, §5
Data set [13] deals with HUVEC. Nature of the data set: LC3 immunoblotting (LC3-I to LC3-II conversion) in HUVEC. It is filed as cell-based. Conditions: 24 hrs. The procedure: as §1
LC3 conversion was finally verified by immunoblotting. After indatraline treatment for 24 hrs, the conversion of LC3-I to LC3-II in cells was tested (FIG. 2A). Inductions of autophagy in both of HUVEC and HeLa cells were tested in concentration starting from 5 μM. In order to investigate signal pathway related to indatraline, well-known autophagy inhibitors 3-MA (10 mM), Bafilomycin A (100 nM), PD98059 (10 μM) and Wortmannin (100 nM) was treated with indatraline. The inhibitors were pre-treated for 1 hr before indatraline and treated with 5 μM or 10 μM of indatraline. […]

Data set [14] deals with HUVEC. As to the kind of experiment: VEGF-induced capillary formation assay. Conditions: VEGF 50 ng/ml. It is filed as cell-based. The procedure: Matrigel (10 mg/mL) (BD, USA) was coated to 48-well plates and polymerized at 37° C. HUVEC (6×10^4 cells) was inoculated on the surface of matrigel in 48-well plates. Under the presence of VEGF (50 ng/ml), the compound was added for 4 hrs at 37° C. Cell morphological changes and a capillary structure formed were observed microscope (IX71, Olympus), and the images were obtained using DP70 camera (Olympus) at 100× magnification.

The subject of data set [15] is skin cancer cell line B16-F10. Nature of the data set: LC3 conversion in B16-F10. Conditions: B16-F10, 5 μM and 10 μM. It is filed as cell-based.
In data set [16] the test system is HeLa cells. Nature of the data set: Cell proliferation assay (MTT) in HeLa. It is filed as cell-based. As to conditions: Homo sapiens, 72 h, 3 days. The procedure: as §3

`CO/C1=C\C(C)=C\[C@@H](C)[C@@H](O)[C@@H](C)C/C(C)=C/C=C/[C@H](OC)[C@@H]([C@@H](C)[C@@H](O)[C@H](C)[C@@]2(O)C[C@@H](O)[C@H](C)[C@@H](C(C)C)O2)OC1=O` [Bafilomycin A]: the “effect of autophagy inhibitor on indatraline-induced conversion of LC3-I to LC3-II” value in the data set with HeLa cells [1] (indatraline 5 μM) and with HeLa cells [1] (indatraline 10 μM) was “inhibited” each time.

As for `CN[C@@H]1C[C@@H](c2ccc(Cl)c(Cl)c2)c2ccccc21` [indatraline], the melanogenesis inhibited result with melan-a cells [2] (48 hrs) is “approximately 89%”; in the data set with melan-a cells [2] (72 hrs), “approximately 74%”; with B16-F10 cells [4] (48 hrs), “approximately 77%”; in the data set with B16-F10 cells [4] (72 hrs), “approximately 59%”. For the same molecule, in data set [3], the “concentration from which LC3 conversion is observed” value is not below 1 µM. For the same molecule, in the data set on rat carotid artery, the angiostenosis result was “significantly inhibited”. Further, in the data set with rat carotid artery, the “proliferation of smooth muscle cells” value is reported as “inhibited”. The “intima area (ratio between intima area and media area)” value in the data set on rat carotid artery (control approximately 80%) is “less than 60%”. Also, in the data set with rat carotid artery (catheter treatment, intima/media ratio), the “smooth muscle cell growth reduced compared to control group” value is “approximately 20%”. In addition, in the data set on HUVEC [5] (0.5 μM and 1 μM, 18 hrs), the VEGF-induced invasion entry is “significantly decreased invasion cells”. The “concentration from which VEGF-induced invasion is effectively inhibited” value with HUVEC [5] (FIG. 4B legend) is not below 5 µM. Besides, the cytotoxicity entry with HeLa cell and in the data set with HUVEC cell was “no cytotoxicity” each time. The values for the cell growth inhibited in the data set on B16-F10 cells [6] (24 hrs) and in the data set on melan-a cells [12] (24 hrs) were 55% and 62%, respectively. Also, the “cell growth inhibited (maintained)” value with B16-F10 cells [6] (after 24 hrs (maintained)) is on record as 54%; in the data set on melan-a cells [12] (after 24 hrs (maintained)), 56%. The results for the IC50 in the data set on HUVEC [7] and in the data set on HeLa cells [16] were 500 nM and 3000 nM, respectively. In the data set on HUVEC [8], the “migration of HUVEC” value is “inhibited migration”. The MDC staining fluorescence result in the data set with HeLa cells [9] is given as “dose-dependent increase of fluorescence from 1 μM”. In addition, the “EGFP-LC3 fluorescence in the cytoplasm” value in data set [10] is listed as “increased indatraline concentration-dependently”. Also, the “autophagy induction (Lysotracker fluorescence) relative to control group” value with HeLa cells [11] (1 μM, 24 hrs, HCS) is on record as 2.87 times. The “autophagy induction in HCS” value in the data set with HeLa cells [11] (Lysotracker) was “induced autophagy similar to rapamycin”. The “concentration from which LC3 conversion (autophagy induction) occurs” value with HUVEC [13] was not below 5 µM; with HeLa cells [1] (HeLa, 24 hrs) it was not below 5 µM. Besides, in the data set on HUVEC [14] (1 μM), the VEGF-induced capillary formation entry is “inhibited the mature capillary formation”. Besides, the capillary formation entry in the data set with HUVEC [14] (4 hrs) is “weakly inhibited”. For the same molecule, the LC3 conversion entry in data set [15] is “strongly occurred”.
